Experimental data: PMC5597121, “The human bitter taste receptor T2R38 is broadly tuned for bacterial compounds” (PLoS ONE, 2017)
Numbering of substitutions follows the chain as printed. Values joined by “and” are separate entries in the source; they are usually repeats but may differ in a detail not shown here. Identical values can stand only once. Like-named read-outs stand apart in the source and are kept apart here.

Legend:
[1] = biological target: T1, T2R38 (Homo sapiens, UniProt P59533, A49P/I296V); assay: Single cell calcium imaging, Peakrapid cells (Gα16gustducin44) transiently transfected with T2R38; format: cell-based; settings: for response of T2R38 PAV transfected cells (S7_fig raw data): individual values of experiments 1-5; for logEC50: given in the concentration-response curve; for Emax (% of positive control): percentage of the response elicited by 0.1 mM PTC
T1 construct: leader: first 45 amino acids of rat somatostatin receptor subtype 3 (SSTR3) (N); expressed in transfected cells; host or cells: Peakrapid cells (HEK293 derivative, ATCC CRL-2828) stably expressing Galpha16gustducin44, co-transfected with human RTP4
T1 sequence (P59533 1-333 A49P/I296V): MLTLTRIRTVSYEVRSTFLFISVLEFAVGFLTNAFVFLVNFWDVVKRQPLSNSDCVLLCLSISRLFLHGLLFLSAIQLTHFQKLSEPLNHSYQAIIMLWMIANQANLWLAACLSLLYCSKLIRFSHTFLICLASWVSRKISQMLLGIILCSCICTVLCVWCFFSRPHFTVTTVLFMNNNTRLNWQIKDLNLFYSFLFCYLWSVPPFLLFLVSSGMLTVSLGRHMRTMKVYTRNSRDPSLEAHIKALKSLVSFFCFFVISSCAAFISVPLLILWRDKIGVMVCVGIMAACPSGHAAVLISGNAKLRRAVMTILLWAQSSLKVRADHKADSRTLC
From the text: (§1) The coding sequences of either the functional (PAV, GenBank accession number AY258597.1) and non-functional (AVI, GenBank accession number AF494231.1) were amplified from human genomic DNA by polymerase chain reaction.
These coding sequences were cloned in a pEFIB backbone vector in translational fusion with the coding sequence of a leader sequence corresponding to the 45 first amino acids of the rat somatostatin receptor subtype 3 [20]. The constructs were verified by sequencing. The coding sequence of RTP4 (Genbank accession number AY562238.1) was amplified from human spleen cDNA and cloned a pCI backbone vector.
The Gα16gustducin44 sequence was generated by swapping the last 132 nucleotides of the G α16 with the corresponding terminal sequence of the Gα-gustducin [21] and was cloned in a pIRES-Puro plasmid. This vector was transfected in the Peakrapid cell line (ATCC reference: CRL-2828™; purchased from LGC Standards SARL, Molsheim, FRANCE), HEK293 cell line derivative, cultured in EMEM culture medium (reference BE12-136F; Lonza, Vervier, BELGIUM) supplemented with 10% of foetal bovine serum (Sigma-Aldrich, Bornem, Belgium) and 1 μg/ml of Puromycin to allow the selection of recombinant cell populations. Cell clones expressing the Gα16gustducin44 were selected and the clone presenting the best functional response of T2R38 to phenylthicarbamide was used for the study (see below).
(§2) The Peakrapid cell line expressing stably a chimeric Gα16gustducin44 G protein [21] was used. 40 000 cells were seeded in each well of a black/clear poly-D-lysine cellware pre-coated 96-well plate (Biocoat®, Becton-Dickinson, Erembodegem, Belgium) and transiently transfected with 50 ng of plasmid DNA containing the receptor sequence or not (empty vector) and with 50 ng of chaperone protein RTP4 per well. Forty hours after transfection, cells were incubated with the calcium-sensitive dye Fluo4 (Life Technologies, Oregon, USA) solubilized at 10 μg/ml in a buffer containing EMEM (150 mM NaCl, 5 mM KCl, 2 mM CaCl2, 1.2 mM MgCl2, 10 mM glucose), 10 mM HEPES, 0.01% (v/v) Pluronic F127, 0.1% (w/v) bovine serum albumin. After 1 h incubation at 37°C, cells were rinsed twice with the same buffer without Fluo4 and left in 50 μl buffer (prior ligand injection). Measurement were performed on a platform based on a motorized Axiobserver Z1 fluorescence microscope piloted by a Axiovision software (Zeiss, Jena, Germany) as described previously. For each selected well, images were taken 1 per second, during 30 seconds. 50 μl of the buffer containing the ligand twice concentrated was injected on the 2nd second of the time lapse record.
After time lapse record, the number of responding cells in each injected well was determined using ImageJ 1.34 (Rasband, W.S., ImageJ, National Institutes of Health, Bethesda, Maryland, USA, http://rsb.info.nih.gov/ij/1997-2004), and expressed as the percentage of the surface of a microscope field covered by activated cells with respect to the total surface of the field covered by confluent cells. Automated determination of the surface occupied by responding cells is easier to perform than a cell counting. The resulting percentage of positive surface provided a convenient estimation of the percentage of responding cells, as observed by comparing the percentage of positive surface and percentage of responsive cells determined by direct counting, in the same experiment. In agreement with the literature, the percentage of responding cells was proportional to the agonist concentration. During experiment in each plate, at least 2 wells were tested with phenylthiocarbamide (PTC) at 0.1 mM, which is one of the best characterized agonist of T2R38 in the literature. The activation of T2R38 by PTC allows normalization of the result of other tested molecules. The results were thus expressed as the percentage of PTC activation. […]

[2] = system: mock transfected cells (empty vector); assay: Single cell calcium imaging, control: mock transfected (empty vector) Peakrapid cells; format: cell-based, human
Procedure: as §2
(§3) After time lapse record, the number of responding cells in each injected well was determined using ImageJ 1.34 (Rasband, W.S., ImageJ, National Institutes of Health, Bethesda, Maryland, USA, http://rsb.info.nih.gov/ij/1997-2004), and expressed as the percentage of the surface of a microscope field covered by activated cells with respect to the total surface of the field covered by confluent cells. Automated determination of the surface occupied by responding cells is easier to perform than a cell counting. The resulting percentage of positive surface provided a convenient estimation of the percentage of responding cells, as observed by comparing the percentage of positive surface and percentage of responsive cells determined by direct counting, in the same experiment. In agreement with the literature, the percentage of responding cells was proportional to the agonist concentration. During experiment in each plate, at least 2 wells were tested with phenylthiocarbamide (PTC) at 0.1 mM, which is one of the best characterized agonist of T2R38 in the literature. The activation of T2R38 by PTC allows normalization of the result of other tested molecules. The results were thus expressed as the percentage of PTC activation. In scaling calcium imaging assays using this latter receptor, concentration-responses curves were performed and data were fitted to a four parameter logistic equation: y=min+ (max− min)/1+10 ^(logEC50−x)nH . Min and max are the minimum and the maximum values of the percentage of cell-activated surface respectively, y is the percentage of cell-activated surface at the x concentration and nH is the Hill coefficient.

[3] = biological target: T2, T2R38 AVI (Homo sapiens, UniProt P59533, A262V); assay: Single cell calcium imaging, control: cells transfected with nonfunctional allele (AVI) of T2R38; format: cell-based; settings: T2R38 AVI, individual values of experiments 1-5
T2 construct: leader: first 45 amino acids of rat somatostatin receptor subtype 3 (SSTR3) (N); expressed in transfected cells; host or cells: Peakrapid cells (HEK293 derivative, ATCC CRL-2828) stably expressing Galpha16gustducin44, co-transfected with human RTP4
T2 sequence (P59533 1-333 A262V): T1 sequence (P59533 1-333 A49P/I296V) with P49A, A262V, V296I
Procedure: as §1, §2, §3

[4] = 2 butanone 0.0003, log10[ ] -3.52288
[5] = 2 butanone 0.005, log10[ ] -2.30
[6] = concentration-response curve, read-out: EC50

CCC(C)=O [2-butanone]
agonist activity on T2R38 (in words) [1]: able to specifically trigger this receptor | percentage of surface covered by activated cells [1, 4]: 0.29% and 0.34% and 0.44% and 0.21% and 0.00% and 0.15% | percentage of surface covered by activated cells ([1]; 2 butanone 0.001, log10[ ] -3): 0.13% and 1.98% and 3.16% and 3.22% and 0.15% and 0.22% | percentage of surface covered by activated cells [1, 5]: 0.54% and 0.83% and 7.88% and 6.11% and 2.08% and 3.12% | response of T2R38 PAV transfected cells (S7_fig raw data) [1]: 17% and 13% and 2.7% and 11% and 15% and 12% and 7% and 6% | EC50 [1, 6]: 11 mM | logEC50 [1]: -1.94 | Emax (% of positive control) [1]: 48 % of positive control | percentage of surface covered by activated cells [2, 4]: 0.39% and 0.10% and 0.28% and 0.31% and 0.23% and 0.40% | percentage of surface covered by activated cells ([2]; 2 butanone 0.001, log10[ ] -3): 0.15% and 0.21% and 0.35% and 0.12% and 1.02% and 0.24% | percentage of surface covered by activated cells [2, 5]: 0.20% and 0.26% and 0.34% and 0.21% and 0.24% and 0.71% | percentage of surface covered by activated cells ([2]; 2 butanone 0.015, log10[ ] -1.82): 0.00% and 0.0352% and 0.31% and 0.18% and 0.33% and 0.26% | percentage of surface covered by activated cells ([2]; 2 butanone 0.03, log10[ ] -1.52): 0.0659% and 0.02% and 0.27% and 0.40% and 0.08% and 0.25% | percentage of surface covered by activated cells ([2]; 2 butanone 0.08, log10[ ] -1.09691): 0.25% and 0.75% and 3.48% and 1.23% and 0.22% and 1.04% | response of T2R38 AVI transfected cells (S7_fig raw data) [3]: 0.268% and 0.426% and 0.699% and 0.605% and 0.163% and 0.0184% and 0.394% and 1%

CSSC [dimethyldisulfide, dimethyl disulfide]
agonist activity on T2R38 (in words) [1]: able to specifically trigger this receptor | EC50 [1, 6]: 3 mM | surface covered by activated cells (given as fraction) ([1]; dimethyldisulfide 0.000251189, log10[ ] -3.6, experiment 6): 0.0087 and 0.0151 | surface covered by activated cells (given as fraction) ([1]; dimethyldisulfide 0.000398107, log10[ ] -3.4, experiment 6): 0.0033 and 0.0066 | surface covered by activated cells (given as fraction) ([1]; dimethyldisulfide 0.000630957, log10[ ] -3.2, experiment 6): 0.0100 and 0.0078 | surface covered by activated cells (given as fraction) ([1]; dimethyldisulfide 0.001, log10[ ] -3, experiment 6): 0.0079 and 0.0134 | surface covered by activated cells (given as fraction) ([1]; dimethyldisulfide 0.00158489, log10[ ] -2.8, experiment 6): 0.0310 and 0.0369 | surface covered by activated cells (given as fraction) ([1]; dimethyldisulfide 0.00398107, log10[ ] -2.4, experiment 6): 0.1269 | logEC50 [1]: -2.54 | Emax (% of positive control) [1]: 46 % of positive control | percentage of surface covered by activated cells ([2]; dimethyldisulfide 0.00251189, log10[ ] -2.6): 0.21% and 0.13% and 0.27% and 1.93% and 1.05% and 0.36% and 1.26%

CSSC [diméthyldisulfide]
response of T2R38 PAV transfected cells (S7_fig raw data) [1]: 18% and 12% (2×) and 2.83% and 2.52% and 3.72% and 7.4% and 9% and 2% and 0.585% | response of T2R38 AVI transfected cells (S7_fig raw data) [3]: 0.145% and 0.026% and 1.18% and 0.463% and 1.36% and 1.27% and 1.33% and 1.1% and 0.0987% and 0.185%

O=C1CCCO1 [γ-butyrolactone]
agonist activity on T2R38 (in words) [1]: able to specifically trigger this receptor | EC50 ([1]; EC50, concentration-response curve): 12 mM | response of T2R38 PAV transfected cells (S7_fig raw data) ([1]; listed as g-butyrolactone): 18% and 20% and 13% and 12% (2×) and 14% and 11% (2×) and 9.52% and 15% | EC50 ([1]; logEC50, printed in the picture of the concentration-response curve): 12 mM | Emax ([1]; read-out: Emax (% of positive control)): 33% | response of T2R38 AVI transfected cells (S7_fig raw data) ([3]; listed as g-butyrolactone): 0.0283% and 0.0479% and 0.129% and 0.148% and 0.16% and 0.208% and 0.188% and 0.394% and 0.0477% and 0.222%
